Among the data in patent publication US20110269700A1, “GLUCOSIDE DERIVATIVES AND USES THEREOF” (NOVARTIS AG, priority 2008, published 2011) are IC50 values, retold here.

One experiment has as its target T1, human SGLT1 (Homo sapiens, UniProt P13866).
T1 construct: expressed in transfected cells; host or cells: CHO-K1 or HEK293
T1 sequence (P13866 1-664): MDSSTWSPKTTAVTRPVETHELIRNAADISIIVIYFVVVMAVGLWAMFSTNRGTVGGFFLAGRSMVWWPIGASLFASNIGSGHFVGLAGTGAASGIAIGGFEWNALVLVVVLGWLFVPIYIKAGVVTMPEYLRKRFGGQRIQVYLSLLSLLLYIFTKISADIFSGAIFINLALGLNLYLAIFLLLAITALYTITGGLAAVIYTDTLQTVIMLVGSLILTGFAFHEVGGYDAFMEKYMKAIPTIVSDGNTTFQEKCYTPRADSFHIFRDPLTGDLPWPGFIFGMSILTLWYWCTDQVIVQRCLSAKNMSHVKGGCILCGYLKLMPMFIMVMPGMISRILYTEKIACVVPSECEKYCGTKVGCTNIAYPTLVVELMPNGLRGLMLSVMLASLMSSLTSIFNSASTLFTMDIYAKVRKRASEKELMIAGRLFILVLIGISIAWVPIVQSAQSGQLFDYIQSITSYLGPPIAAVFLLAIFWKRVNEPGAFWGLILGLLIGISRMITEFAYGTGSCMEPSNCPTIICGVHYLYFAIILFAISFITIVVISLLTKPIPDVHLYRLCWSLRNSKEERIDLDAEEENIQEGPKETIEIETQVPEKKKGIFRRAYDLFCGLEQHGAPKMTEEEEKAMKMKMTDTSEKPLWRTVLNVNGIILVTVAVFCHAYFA
Put plainly: SGLT1 assay: 14C-AMG uptake in CHO-K1 or HEK293 cells expressing hSGLT1. Type of experiment: cell-based. Particulars: n = 1-4. The method, then:
To determine human SGLT1 inhibitory activity, an analogous test was set up in which the cDNA for hSGLTI (Genbank Ace. No. NM000343) instead of hSGLT2 cDNA is expressed in CHO-K1 or HEK293 cells. The uptake assay buffer in the case of the hSGLT1 assay contains 10 mM HEPES, 5 mM Tris, 140 mM NaCl, 2 mM KCl, 1 mM CaCl2, and 1 mM MgCl2, pH 7.4 containing 0.5 mM of α-methyl-D-glucopyranoside (AMG), 10 μM of [^14C]-α-methyl-D-glucopyranoside and different inhibitor concentrations.

Experiment [1] has as its target T2, human sodium glucose cotransporter 2 (Homo sapiens, UniProt P31639).
T2 construct: expressed in transfected cells; host or cells: CHO-K1 (ATCC CCL-61) or HEK293 (ATCC CRL-1573), stably transfected with pZeoSV
T2 sequence (P31639 1-672): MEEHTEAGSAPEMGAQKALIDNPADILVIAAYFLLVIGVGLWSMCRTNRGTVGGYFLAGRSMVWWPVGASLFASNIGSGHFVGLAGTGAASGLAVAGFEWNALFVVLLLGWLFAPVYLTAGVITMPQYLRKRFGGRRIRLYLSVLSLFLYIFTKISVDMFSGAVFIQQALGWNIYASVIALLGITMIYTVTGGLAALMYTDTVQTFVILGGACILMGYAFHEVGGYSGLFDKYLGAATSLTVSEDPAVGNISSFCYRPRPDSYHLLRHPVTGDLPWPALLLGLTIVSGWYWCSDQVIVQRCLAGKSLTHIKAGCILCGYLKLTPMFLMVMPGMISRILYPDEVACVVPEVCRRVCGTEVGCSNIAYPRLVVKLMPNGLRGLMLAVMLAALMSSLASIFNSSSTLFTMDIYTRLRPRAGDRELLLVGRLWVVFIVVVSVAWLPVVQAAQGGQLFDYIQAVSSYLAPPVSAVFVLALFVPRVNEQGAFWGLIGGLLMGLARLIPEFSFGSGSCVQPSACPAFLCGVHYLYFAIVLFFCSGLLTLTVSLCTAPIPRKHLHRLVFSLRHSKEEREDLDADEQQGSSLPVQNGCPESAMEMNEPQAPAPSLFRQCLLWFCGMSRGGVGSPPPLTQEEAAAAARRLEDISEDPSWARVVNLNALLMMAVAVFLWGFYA
As to the kind of experiment: SGLT2 assay: 14C-AMG uptake in CHO-hSGLT2 or HEK-hSGLT2 cells. Type of experiment: cell-based. Particulars: n = 1-4. The method, then:
These cell lines transport ^14C-labeled alpha-methyl-glucopyranoside (^14C-AMG, Amersham) into the interior of the cell in sodium-dependent manner.
The SGLT-2 assay is carried out as follows: CHO-hSGLT2 cells are cultivated in Ham's F12 Medium (BioWhittaker) with 10% fetal calf serum and 250 μg/mL zeocin (Invitrogen), and HEK293-hSGLT2 cells are cultivated in DMEM medium with 10% fetal calf serum and 250 μg/mL zeocin (Invitrogen). The cells are detached from the culture flasks by washing twice with PBS and subsequently treating with trypsin/EDTA. After the addition of cell culture medium the cells are centrifuged, resuspended in culture medium and counted in a Casy cell counter. Then 40,000 cells per well are seeded into a white, 96-well plate coated with poly-D-lysine and incubated overnight at 37° C., 5% CO2. The cells are washed twice with 250 μl of assay buffer (Hanks Balanced Salt Solution, 137 mM NaCl, 5.4 mM KCl, 2.8 mM CaCl2, 1.2 mM MgSO4 and 10 mM HEPES (pH 7.4), 50 μg/mL of gentamycin). 250 μl of assay buffer and 5 μl of test compound are then added to each well and the plate is incubated for a further 15 minutes in the incubator. 5 μl of 10% DMSO are used as the negative control. The reaction is started by adding 5 μl of 14 C-AMG (0.05 μCi) to each well. After 2 hours' incubation at 37° C., 5% CO2, the cells are washed again with 250 μl of PBS ([…]) and then lysed by the addition of 25 μl of 0.1 N NaOH (5 min. at 37° C.). 200 μl of MicroScint20 (Packard) are added to each well and incubation is continued for a further 20 min at 37° C. After this incubation the radioactivity of the 14 C-AMG absorbed is measured in a Topcount (Packard) using a 14 C scintillation program.

Usually IC50 stands for the concentration needed to halve the response being measured. Read a high IC50 as lower potency. Turning to `CCOc1ccc(Cc2cc([C@@H]3O[C@H](Cn4nncc4CO)[C@@H](O)[C@H](O)[C@H]3O)ccc2Cl)cc1` [Example 9, (2S, 3R, 4R, 5S, 6R)-2-[4-Chloro-3-(4-ethoxy-benzyl)-phenyl]-6-(5-hydroxymethyl-[1,2,3]triazol-1-ylmethyl)-tetrahydro-pyran-3,4,5-triol], the IC50 was above 10000 nM at human SGLT1 and 94 nM in experiment [1].

As to `CCOc1ccc(Cc2cc([C@@H]3O[C@H](Cn4cc(CO)nn4)[C@@H](O)[C@H](O)[C@H]3O)ccc2Cl)cc1` [Example 10, (2S, 3R, 4R, 5S, 6R)-2-[4-Chloro-3-(4-ethoxy-benzyl)-phenyl]-6-(4-hydroxymethyl-[1,2,3]triazol-1-ylmethyl)-tetrahydro-pyran-3,4,5-triol], the results for the IC50 (against human SGLT1; in experiment [1]) were 32000 nM and 50 nM, respectively.

`CCOc1ccc(Cc2cc([C@@H]3O[C@H](Cn4cc(C(N)=O)nn4)[C@@H](O)[C@H](O)[C@H]3O)ccc2Cl)cc1` [Example 12, 1-{(2R,3S,4R,5R,6S)-6-[4-Chloro-3-(4-ethoxy-benzyl)-phenyl]-3,4,5-trihydroxy-tetrahydro-pyran-2-ylmethyl}-1H-[1,2,3]triazole-4-carboxylic acid amide] had an IC50 in experiment [1] of 81 nM.

Regarding `CCOc1ccc(Cc2cc([C@@H]3O[C@H](CNc4cccc(NC(C)=O)c4)[C@@H](O)[C@H](O)[C@H]3O)ccc2Cl)cc1` [Example 34, N-[3-({(2R,3S,4R,5R,6S)-6-[4-Chloro-3-(4-ethoxy-benzyl)-phenyl]-3,4,5-trihydroxy-tetrahydro-pyran-2-ylmethyl}-amino)-phenyl]-acetamide], the IC50 was determined as 1500 nM against human SGLT1 and 23 nM in experiment [1].

Consider `CCOc1ccc(Cc2cc([C@@H]3O[C@H](CN(C)c4cccc(C(=O)N5CCCC5)c4)[C@@H](O)[C@H](O)[C@H]3O)ccc2Cl)cc1` [Example 37, [3-({(2R,3S,4R,5R,6S)-6-[4-Chloro-3-(4-ethoxy-benzyl)-phenyl]-3,4,5-trihydroxy-tetrahydro-pyran-2-ylmethyl}-methyl-amino)-phenyl]-pyrrolidin-1-yl-methanone], for which the values for the IC50 (at human SGLT1; in experiment [1]) were 280 nM and 10 nM, respectively.
